The record followed here is paper PMC7948398, “Rapid kinetics reveal surprising flavin chemistry in bifurcating electron transfer flavoprotein from Acidaminococcus fermentans” (The Journal of Biological Chemistry, 2020).

For the test, the target named is T1, EtfAB; EtfaB (EtfAB from which α-FAD was removed) (Acidaminococcus fermentans, UniProt D2RIQ2+D2RIQ3).
T1 construct: gene Acfer_0555; recombinant from pET-11a by autoinduction; AB heterodimer, 66 kDa; EtfAB holds α-FAD and β-FAD; EtfaB made by removing FAD from the A-subunit (phenyl Sepharose, KBr); with Electron transfer flavoprotein subunit alpha
T1 sequence (D2RIQ2 1-263): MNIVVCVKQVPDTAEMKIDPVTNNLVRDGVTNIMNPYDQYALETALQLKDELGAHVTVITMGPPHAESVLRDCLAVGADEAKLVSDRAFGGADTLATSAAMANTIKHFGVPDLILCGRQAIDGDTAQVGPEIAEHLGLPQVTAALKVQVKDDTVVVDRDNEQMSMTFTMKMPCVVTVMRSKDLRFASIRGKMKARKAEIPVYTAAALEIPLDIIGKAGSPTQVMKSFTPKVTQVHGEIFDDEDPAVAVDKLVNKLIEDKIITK
T1 sequence (D2RIQ3 1-340): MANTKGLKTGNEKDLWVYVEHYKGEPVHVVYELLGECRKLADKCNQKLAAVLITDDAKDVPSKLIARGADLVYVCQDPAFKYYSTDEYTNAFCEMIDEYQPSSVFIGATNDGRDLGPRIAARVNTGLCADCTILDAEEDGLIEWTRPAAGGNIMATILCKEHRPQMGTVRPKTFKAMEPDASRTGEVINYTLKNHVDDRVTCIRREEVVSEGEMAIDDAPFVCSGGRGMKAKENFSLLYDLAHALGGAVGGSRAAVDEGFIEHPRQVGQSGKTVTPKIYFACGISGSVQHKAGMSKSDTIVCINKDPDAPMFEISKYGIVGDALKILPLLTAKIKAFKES
In words: anaerobic stopped-flow, kobs at […] nm versus [NADH]. The format is biochemical. The conditions noted are these: EtfaB form (β-FAD only, α-FAD removed), slow-reacting minor population (~16%); 50 mM potassium phosphate pH 7.0, 4 °C; site at β-FAD.

`NC(=O)C1=CN([C@@H]2O[C@H](COP(=O)(O)OP(=O)(O)OC[C@H]3O[C@@H](n4cnc5c(N)ncnc54)[C@H](O)[C@@H]3O)[C@@H](O)[C@H]2O)C=CC1` [NADH] displayed a Kd of 3.8 ± 0.2 mM.

The term Kd denotes a measure of binding affinity in units of concentration. Low readings indicate a tighter complex, high ones a looser complex.
